Laboratory results: publication PMC5118709, “Identification of Polo-like kinase 1 interaction inhibitors using a novel cell-based assay” (Scientific Reports, 2016)
“And” between values parts separate entries of the source, which are not always exact repeats. Equal entries are not always repeated. “Also recorded” adds a separate entry of the source. Blank lines part the entries; values can stand above or below the molecule they belong to. Where no end group is shown, it is not given here. [ ]: non-standard residue; d: D form. The star is where a group is joined. FITC = O=C1OC2(c3ccc(O)cc3Oc3cc(O)ccc32)c2ccc(NC(=S)*)cc21; pT = C[C@@H](OP(=O)(O)O)[C@H](N)C(=O)O

Key:
[1] = reaction with amino-protected amino acids (LC-MS); settings: room temperature
Method: Vinyl sulfones are reactive species that can alkylate substrates as a result of a nucleophilic attack on the distal carbon of the vinyl group. To evaluate the potential of Cpd 161 (vinyl sulfone) to react with proteins, we tested its reaction with nucleophilic amino acid side chains groups. […] To test whether Cpd 161 could react covalently with the PBD, we incubated them together and examined the molecular mass of the protein by SDS-PAGE (Fig. 7). […] Consistent with this idea, the extent of the shift depended on the concentration of Cpd 161 used (Fig. 7B) and also on the incubation time (Fig. 7C).
To a stirred solution of electrophile (0.02 mmol) and amino acid (1- 1.5eq) in DMF (0.3 ml) were added a few drops of a diluted aqueous solution of sodium bicarbonate. The reaction was monitored using an Agilent 6120 Quadrupole LC/MS system (Agilent Technologies). In all cases, the molecular ion of the product was observed.

His-PBD326-603 [2] = target: T1, His-PBD326-603 (Homo sapiens, UniProt P53350); experiment: alkylation sites on the PBD by LC-MS/MS
T1 sequence (P53350 326-603): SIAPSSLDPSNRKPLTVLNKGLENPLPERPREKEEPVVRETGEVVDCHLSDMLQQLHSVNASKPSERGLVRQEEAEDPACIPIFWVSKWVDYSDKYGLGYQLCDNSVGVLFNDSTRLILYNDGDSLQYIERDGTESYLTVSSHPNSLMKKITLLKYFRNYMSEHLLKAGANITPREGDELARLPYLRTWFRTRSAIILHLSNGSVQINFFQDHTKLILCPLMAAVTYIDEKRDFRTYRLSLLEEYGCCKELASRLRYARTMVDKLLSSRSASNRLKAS
Method: Proteins were precipitated using acetone and resuspended in 100 μl. Sample reduction was performed by adding 50 μl of 5 mM TCEP in 50 mM ammonium bicarbonate. Samples were then added 50 μl of chloroacetamide 50 mM with ammonium bicarbonate 50 mM to protect exposed cysteine residues. One microgram of trypsin was added and the digestion was performed for 8 h at 37 °C. […] Each full MS spectrum acquired with a 70,000 resolution was followed by 12 MS/MS spectra, where the 12 most abundant multiply charged ions were selected for MS/MS sequencing. Peptides were identified using Peaks 8.0 (Bioinformatics Solution Inc.) and peptide sequences were blasted against the Human Uniprot database. Tolerance was set at 10 ppm for precursor and 0.01 Da for fragment ions during data processing. For the post-translational modification of proteins, occurrence of carbamidomethylation (C), oxidation (M), deamidation (NQ) was considered as well as addition of TQ (C, K), Poloxin (K, C, H), and vinyl sulfone (C, H, K) when needed.

GST-PBD367-603 of Plk1 = GST-PBD367-603 of Plk1 (Homo sapiens, UniProt P53350); experiment: fluorescence polarization assay PBD-phosphopeptide
GST-PBD367-603 of Plk1, sequence (P53350 367-603): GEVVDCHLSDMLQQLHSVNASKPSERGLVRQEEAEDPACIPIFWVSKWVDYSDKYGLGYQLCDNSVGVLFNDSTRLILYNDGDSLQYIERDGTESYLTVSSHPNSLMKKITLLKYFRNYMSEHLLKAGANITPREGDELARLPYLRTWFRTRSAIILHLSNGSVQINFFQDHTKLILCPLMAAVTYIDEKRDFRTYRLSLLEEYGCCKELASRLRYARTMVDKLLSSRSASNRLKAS
Description: In this assay, an optimal phosphopeptide for PBD binding is coupled with a FITC fluorophore and its binding to purified recombinant PBD of Plk1 is monitored by the change in polarization of incident light.

His-PBD326-603 [3] = target: T1, His-PBD326-603; experiment: covalent reaction with the PBD by SDS-PAGE; parameters: His-PBD326-603 was expressed in E.coli BL21; made in house; host or cells: E. coli BL21; settings: 2.5 mM, 3-4 h
Method: Vinyl sulfones are reactive species that can alkylate substrates as a result of a nucleophilic attack on the distal carbon of the vinyl group.
Membranes were blocked with TBS-Tween 0.1% containing 5% of dry milk powder, then incubated with anti-Plk1 (F-8; Santa Cruz Biotechnologies Inc.) or with a 6x-His epitope tag antibody (Invitrogen; gift from Gregory Emery). HRP-conjugated goat anti-mouse IgG (Jackson ImmunoResearch Laboratories inc.) was used and TBS-Tween 0.1% was used for the washes before and after the secondary antibody. […] Gels were imaged using a ChemiDoc MP system (BioRad).

HeLa cells = experiment: mitotic defect phenotypes by immunofluorescence; assay type: cell-based; settings: 10 μM, 7 h
Method: HeLa cells were treated with these compounds along with the known PBD inhibitors PPG, TQ, Poloxin and the KD inhibitor BI2536 as controls, and then stained against α-Tubulin, pericentrin (a centrosome marker) and DNA (Fig. 2D). In all cases, there was a marked increase in the frequency of disorganized spindles compared with DMSO-treated control cells. This is expected as Plk1 plays multiple roles in spindle assembly and maintenance. […] Cpd 69, an analog of compound 122, induced a similar phenotype at lower concentrations (data not shown). This phenotype was not seen after treatment with BI2536.
For the mitotic defect phenotypes, 25 200 HeLa cells were plated on poly-L-lysine coated round cover slips in 24-well plates. The day after, cells were treated for 7 hours, and then washed with PHEM buffer at 37 °C before fixation in PHEM buffer containing 4% formaldehyde for 20 minutes at 37 °C. Cells were washed three times with TBS-tween 0.1% and plate was kept overnight at 4 °C. Next steps were followed as previously described except that coverslips were incubated in a dark wet chamber with antibodies. Anti-pericentrin (diluted 1:1000; Abcam), anti-α-tubulin DM1A (diluted 1:500; Sigma-Aldrich), Alexa Fluor 488 anti-rabbit and Texas-Red anti-mouse (diluted 1:200; Invitrogen) were used. Coverslips were mounted on slide using Vectashield media containing DAPI (Vector Laboratories).
Images shown in Fig. 2D were acquired on an AxioImager microscope (Carl Zeiss) with a 100x oil objective (NA 1.4 DICIII) and an AxioCam HRM camera (Carl Zeiss) using AxioVision software (Carl Zeiss).

PBD of Plk1 = PBD of Plk1 (Homo sapiens, UniProt P53350); experiment: fluorescence polarization assay PBD-Map peptide; assay type: binding
PBD of Plk1, sequence (P53350 367-603 limits assumed): as the sequence (P53350 367-603) above
Method: The FP buffer was composed of 10 mM Tris pH 8.0, 50 mM NaCl, 1 mM EDTA, 20% glycerol and 0.1% NP-40. The peptide (final concentration 10 nM) was always added to the wells of non-binding, black, 384-well plates, 1 hour after the addition of the protein with the buffer (+/− treatment, 10% DMSO). […] EC65s were used to perform the competitive assays with the non-labeled peptides and with the inhibitors. FP Inhibition was calculated with the formula: 100 − [((mPsample − mPfree peptide)\(mPDMSO − mPfree peptide)) × 100]. […] (Map peptide), and corresponding non-labeled peptides are identical but without FITC in N-terminal. […] Inhibition curves were fitted with GraphPad (Prism software).

PBD = test system: PBD; parameters: method as in PMID 19033445; settings: cited from earlier work
mitosis = settings: cited from earlier work
Plk1-Map interaction = Plk1-Map interaction (Homo sapiens, UniProt P53350); experiment: LUMIER co-immunoprecipitation assay Plk1-Map
Plk1-Map interaction, sequence (P53350 whole entry): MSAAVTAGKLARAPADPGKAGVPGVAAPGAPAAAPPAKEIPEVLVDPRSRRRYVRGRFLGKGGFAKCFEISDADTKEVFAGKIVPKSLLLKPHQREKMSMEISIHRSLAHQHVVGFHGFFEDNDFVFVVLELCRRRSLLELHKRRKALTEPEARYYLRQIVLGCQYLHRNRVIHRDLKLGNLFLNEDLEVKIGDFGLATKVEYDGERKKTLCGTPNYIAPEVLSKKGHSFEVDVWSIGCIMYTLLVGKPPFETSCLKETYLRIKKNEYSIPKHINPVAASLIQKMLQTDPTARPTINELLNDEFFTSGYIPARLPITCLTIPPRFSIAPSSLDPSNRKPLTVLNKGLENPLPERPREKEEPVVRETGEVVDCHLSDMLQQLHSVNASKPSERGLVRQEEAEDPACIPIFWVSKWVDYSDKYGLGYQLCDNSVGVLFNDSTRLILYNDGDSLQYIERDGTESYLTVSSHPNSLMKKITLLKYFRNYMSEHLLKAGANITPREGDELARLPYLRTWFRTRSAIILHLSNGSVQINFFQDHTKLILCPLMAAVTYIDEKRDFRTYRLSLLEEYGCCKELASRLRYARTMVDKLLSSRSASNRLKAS
Method: After cell lysis, GFP-Plk1 was immunoprecipitated and co-purified Map-Luc was measured by luminescence following addition of the luciferase substrate, coelenterazine.
Half a million stably transfected Map205-RLucII/GFP10-Plk1 cells in Tyrode solution were seeded per well in a 96-well plate and allowed to settle for 30 min at 37 °C. […] Plates were then centrifuged at 4 °C at 3000 rpm for 5 minutes to pellet cells. Cells were then lysed with the IP buffer (20 mM Tris pH 7.5, 150 mM NaCl, 2 mM EGTA, 0.5% NP-40, 1 mM DTT, PMSF, aprotinin and leupeptin) and incubated on ice for 20 minutes. Plates were centrifuged again at 4 °C at 3400 rpm for 10 minutes, and the soluble fraction was transferred into a new 96-well plate. Note that 10 μl of this fraction was transferred in white 96-well plates from which the luminescence was read as a measure of the input amount of cell lysate for the co-IP. GFP-Plk1 was immunoprecipitated by adding 0.35 μl of anti-GFP antibody (Invitrogen). Plates were sealed and incubated on a rotator at 4 °C for 30 minutes. Then, 4 μl of pre-washed protein A magnetic beads (Invitrogen) were added to each well. Plates were sealed and incubated at 4 °C for 1h30. The extracts + beads were then transferred in a 96-well PCR plates and beads were washed 3 times with the IP buffer using a magnetic 96-well rack. The fourth wash was done in Tyrode solution, then beads were re-suspended with it and transferred in a white 96-well plate. […] Tyrode was also added to the plates containing the input fraction, then Coelenterazine h was added to the wells, and enhanced luminescence was read as described above.

human GST-PBD_(367-603) = target: T2, human GST-PBD_(367-603) (human, UniProt P53350 367-603); experiment: fluorescence polarisation; competition: FITC-phosphopeptide 10 nM and GST-PBD 367-603 at 38 nM (EC65), unlabeled phosphopeptide at increasing concentrations; FP buffer; settings: both partners purified
T2 construct: also called Polo-Box Domain of Plk1; source: bought: Sigma-Aldrich
T2 sequence (P53350 367-603): as the sequence (P53350 367-603) above

[4] = target: T3, Human Plk1 full length protein (human, UniProt P53350 1-603); experiment: fluorescence polarisation; FITC-Map peptide with the PBD or full-length Plk1 (Supplementary Fig. S3); compounds tested up to 100 uM; settings: both partners purified
T3 construct: Polo-like kinase 1 (Plk1), human, full length protein; also called full-length Plk1; whole Plk1; source: bought: Abcam
T3 sequence (P53350 whole entry): as the sequence (P53350 whole entry) above

Molecule: O=c1c(O)cccc2cc(O)c(O)c(O)c12 [PPG, purpurogallin, reference compound]
2 > pericentrin foci (percentage of cells) (HeLa cells): 7 ± 4% | Disorganized spindles (percentage of cells) (HeLa cells): 41 ± 6% | disruption of the PBD-Map interaction in FP (PBD of Plk1): disrupted the PBD-Map interaction | concentrations active in vitro (PBD): low micromolar concentrations | concentrations impacting mitosis (mitosis): high micromolar concentrations | Average-Beads (mean luminescence) (Plk1-Map interaction; 10-25 μM, 2 h): 301,042 | Relative Luminescence Unit (Plk1-Map interaction; mean divided by maximum mean of the compounds): 0.351 | Luminescence on beads, duplicate wells (Plk1-Map interaction; raw data, 10-25 μM, 2 h): 290,044 and 312,040 | IC50 (GST-PBD367-603 of Plk1; IC50 in FP, GST-PBD367-603 38 nM, 1 h pre-incubation, FITC-phosphopeptide 10 nM, Fig. 4C): 126 µM

Molecule: CC1=CC(=O)C(C(C)C)=CC1=O [TQ, Thymoquinone]
2 > pericentrin foci (percentage of cells) (HeLa cells): 33 ± 9% | Disorganized spindles (percentage of cells) (HeLa cells): 56 ± 8% | time to completion of reaction with amino-protected cysteine [1]: approximately 10 minutes | concentrations required to disrupt mitosis and induce apoptosis (mitosis): high micromolar concentrations

B2: unlabeled phosphopeptide GPMQS{T}PLNG (peptide)
peptide: GPMQS[pT]PLNG
notes: as m7 but without FITC in N-terminal; also called corresponding unlabeled phosphopeptide; equivalent unlabeled peptide; source: synthetic peptide (Bio Basic inc., >95% pure)
binding result (human GST-PBD_(367-603)): binds

Now from value to molecule, other results behind:

alkylated residues very near the phosphopeptide binding site (His-PBD326-603 [2]): His489; also recorded: Lys492 | residues of the PBD found alkylated (His-PBD326-603 [2]; 2.5 mM TQ, 2.5 mM Cpd 161 or 250 μM Poloxin, 3 hours): cysteines, lysines and histidines | IC50 (GST-PBD367-603 of Plk1; FP - IC50 (μM), Table S3): 8.3 ± 2.6 µM | activity in the FP assay (GST-PBD367-603 of Plk1; SAR): showed the same activity as Cpd 16
Molecule: C=CS(=O)(=O)c1cc(C(F)(F)F)cc(C)n1 [Cpd 161, 2-methyl-4-(trifluoromethyl)-6-(vinylsulfonyl) pyridine]
time to completion of reaction with amino-protected cysteine [1]: approximately 10 minutes | time to completion of reaction with amino-protected lysine [1]: approximately 10 minutes | mobility shift of the PBD in SDS-PAGE (His-PBD326-603 [3]): appeared higher in the gel, a few kDa above the protein treated with DMSO alone

binding result (human GST-PBD_(367-603)): binds
B1: FITC-GPMQS{T}PLNG (FITC-labeled PBD-binding phosphopeptide) (peptide)
peptide: {FITC}-GPMQS[pT]PLNG
notes: also called FITC-phosphopeptide; source: synthetic peptide (Bio Basic inc., >95% pure)

binding result [4]: binds
B3: FITC-GIAVPDEREFDIEADMRPHEL (Map peptide) (peptide)
peptide: {FITC}-GIAVPDEREFDIEADMRPHEL
notes: small peptide derived from Drosophila Map205; also called small peptide derived from Map205 coupled to FITC; source: synthetic peptide (Bio Basic inc., >95% pure)
